The results in this text go back to paper PMC12656566, “Toxicokinetic Characterization of MDM Hydantoin via Stable Metabolite DMH: Population Modeling for Predicting Dermal Formaldehyde Formation” (Toxics, 2025).

“And” between values parts separate entries of the source, which are not always exact repeats. Equal entries are not always repeated. “Also recorded” adds a separate entry of the source. Where two headings read alike, the source gives them in different places. A value given as a limit tells only on which side of the number the result lay.

As usually defined, the clearance is a measure of how efficiently the substance is removed, as volume per time. In general, AUC(0-t) refers to the area under the concentration-time curve up to a stated or last time point. The Cmax is the peak of the concentration-time curve. As a reminder, the Tmax is the time at which the peak concentration occurs.

Series [1] can be described thus: Toxicokinetics after intravenous injection of MDMH or DMH (plasma, LC-MS/MS, non-compartmental analysis). In kind it is in vivo. To be noted: rats; for half-life / clearance / Vd / AUC(0-t) / C0 / AUC(0-inf): male, Sprague-Dawley, rat; for half-life / clearance / Vd: plasma; for half-life: iv; for Vd: read-out: Vz; for AUC(0-inf): read-out: AUCinfinity. The procedure: (§1) An API 4000 LC-MS/MS system (Applied Biosystems/MDS Sciex, Foster City, CA, USA) coupled with an Agilent 1100 HPLC (Agilent Technologies, Santa Clara, CA, USA) was used for determination of MDMH and DMH in rat plasma. The analytes were separated on a Synergi Fusion-RP 80 Å (150 × 2.0 mm, i.d., 4 µm;) with a Security Guard™ Cartridge AJ0-7556 (Phenomenex, Torrance, CA, USA), and the column oven temperature was maintained at 30 °C. An isocratic solvent system of distilled water and methanol (80:20, v/v) was used with a runtime of 7 min. The injection volume was 10 µL, and the flow rate was maintained at 0.2 mL/min.
(§2) For plasma sample preparation, formic acid was immediately added to blood samples upon collection to achieve a final concentration of 0.5% to prevent potential enzymatic degradation of MDMH, and all sample preparation procedures were conducted at ≤4 °C to minimize temperature-dependent decomposition of the analytes. For analysis, 50 μL of internal standard solution and 100 μL of methanol containing 0.5% formic acid (as precipitating solvent) were added to 50 μL of plasma, followed by vortex-mixing for 2 min. After centrifugation at 21,206× g for 10 min, 40 μL of supernatant was mixed with 160 μL of 0.5% formic acid in distilled water, and 10 μL was injected into the LC-MS/MS system.
(§3) All animal care and experiments were conducted to evaluate the toxicokinetics of MDMH and DMH according to the Guidelines for the Care and Use of Animal approved by the Ethics Committee for Treatment of Laboratory Animal at Daegu Catholic University (CUD-2019-020). To evaluate the toxicokinetics of MDMH and DMH in rats after intravenous injection (IV) or transdermal application (TD). Male Sprague-Dawley rats (9 weeks, body weight 260–310 g) (Hyochang Science Co., Daegu, Republic of Korea) were kept in plastic cages and fed regularly with water and feed. Rats were acclimated for a minimum of 1 week prior to the experiment under conditions keeping a 12 h light-dark cycle, a temperature of 23 ± 2 °C, and a relative humidity of 50 ± 10%. The rats were cannulated using polyethylene tubing (0.58 mm i.d., 0.96 mm o.d., Natsume, Tokyo, Japan) in the jugular vein after intraperitoneal injection at a dose of 0.9 mL/kg of Zoletil 50 (Virbac, Carros, France).
For IV injection, MDMH or DMH was dissolved in distilled water, respectively, and the dose was 50 or 10 mg/kg, respectively. Blood samples were collected via the jugular vein in the MDMH administration group at 0, 0.5, 1, 1.5, 2, 2.5, 3, 5, 10, and 15 min and 1, 2, 4, 8, 12, and 24 h (16 points/head), and in the DMH administration group at 0, 2, 5, 10, 15, 30 min and 1, 2, 4, 8, 12, and 24 h (12 points/head). Plasma samples were harvested by centrifugation of obtained blood for 10 min at 4000× g, and stored at −20 °C until analysis.
The toxicokinetic parameters were calculated by standard non-compartmental analysis using the non-linear least squares regression program Phoenix™ WinNonlin® 6.1 (Pharsight, Cary, NC, USA).
The non-compartmental toxicokinetic parameters included terminal half-life (t1/2), area under the plasma concentration versus time curve from time zero to the last observation time point (AUClast) and to infinity (AUCinfinity), volume of distribution (Vz), and systemic clearance (CL). The maximum plasma concentration (Cmax) and the time to reach Cmax (Tmax) were obtained directly from the observed data. Absolute bioavailability (F) was estimated as the ratio of the dose-normalized AUCinfinity of MDMH and DMH following TD application compared to IV injection. The fraction metabolized (Fm) was calculated as the ratio of metabolite AUC to parent AUC after correction for molecular weight differences, accounting for the stoichiometric conversion relationship:(1) Fm=AUCDMH·MWMDMH/AUCMDMH·MWDMH where MWMDMH = 158.16 g/mol and MWDMH = 128.13 g/mol. […]

A short description of series [2]: Toxicokinetics after transdermal application of gel containing 2% MDMH or DMH (plasma, non-compartmental analysis). It counts as in vivo. The conditions noted are these: rats; for bioavailability: plasma, DMH, TD application of 2% DMH gel (10.7 mg/kg) vs IV, read-out: Absolute bioavailability. The procedure: as §1, §2, §3
The transdermal application study was performed according to the “Organization for Economic Cooperation and Development guidelines for the in vivo skin absorption test”. Rats were anesthetized using inhaled isoflurane, and the back area of 6 × 6 cm^2 was removed using an electric clipper (808, Daito Electric Co., Osaka, Japan) 12 h before administration. The clipped skin of the rat was wiped with acetone without damaging the stratum corneum, and a resting period was allowed just before the study.
For TD application, a gel corresponding to approximately 5 mg/cm^2 was applied to an area of 5 × 5 cm^2 among the depilated areas. The doses of MDMH and DMH for the transdermal application study were 10.9 and 10.7 mg/kg on average, respectively. Although the regulatory limit for MDMH in cosmetics is 0.2%, a higher concentration (2%) was employed to ensure adequate systemic exposure and plasma concentrations suitable for accurate toxicokinetic characterization of these rapidly metabolized compounds. To prevent loss of the compounds due to volatilization and grooming, the application on the back site was adhered with gauze and pads. Blood samples were collected via the jugular vein in the MDMH application group at 0, 30 min, and 1, 2, 3, 4, 5, 6, 7, 8, 10, 12, and 24 h (13 points/head), and in the DMH application group at 0, 30 min, and 1, 2, 3, 4, 6, 8, 10, 12, and 24 h (11 points/head). Plasma samples were harvested by centrifugation of obtained blood for 10 min at 4000× g, and stored at −20 °C until analysis.
The toxicokinetic parameters were calculated by standard non-compartmental analysis using the non-linear least squares regression program Phoenix™ WinNonlin® 6.1 (Pharsight, Cary, NC, USA). […]

Setting [3] is: DMH in plasma after IV injection of DMH 10 mg/kg, n = 5.
Setting [4] is: DMH after IV injection of DMH 10 mg/kg, n = 5.
Setting [5] is: male, Sprague-Dawley, rat, topical or ocular, DMH in plasma after TD application of gel containing 2% DMH (10.7 mg/kg), n = 5.
Setting [6] is: MDMH after IV injection of MDMH 50 mg/kg, n = 5.
The mark [7] stands for this setting: MDMH in plasma after IV injection of MDMH 50 mg/kg, n = 5.

On to `CC1(C)NC(=O)NC1=O` [DMH, 5,5-dimethylhydantoin], for which the “duration of initial distribution phase (alpha phase)” value in series [1] (DMH after direct intravenous administration of DMH) is reported as “approximately 30 min”. In addition, in series [1] (setting [3]), the t1/2 came to 3.0212 ± 0.5513 h, the area under the curve AUC(0-t) was 47.1 ± 29.9 µg·h/mL, the C0 is 26.9 ± 18.3 µg/mL and the AUC(0-inf) stood at 55 ± 36.8 µg·h/mL. Besides, the half-life in series [1] (10 mg/kg, DMH after IV injection of DMH 10 mg/kg, read-out: t1/2 (hour equivalent)) came out at 3.02 h. In series [1] (10 mg/kg, DMH in plasma after IV injection of DMH 10 mg/kg, n = 5, read-out: t1/2), the half-life came out at 3.02 ± 0.55 h. Also, in series [1] (setting [4]), the clearance is 0.24 L/h/kg and the Vd turned out to be 1 ± 0.47 L/kg. For the same compound, the bioavailability in series [2] (male, Sprague-Dawley, rat, topical or ocular, n = 5) stood at 101 ± 18%. The bioavailability in series [2] (male, Sprague-Dawley, rat, topical, n = 5) was 101 ± 18%. Moreover, in series [2] (setting [5]), the AUC(0-t) came to 40.51 ± 0.05 µg·h/mL, the peak concentration (Cmax) stood at 6.46 ± 1.69 µg/mL, the time of peak concentration (Tmax) turned out to be 2 ± 1.73 h and the half-life is 5.36 ± 2.18 h. Moreover, in series [2] (male, Sprague-Dawley, rat, topical or ocular, DMH in plasma after TD application of gel containing 2% DMH (10.7 mg/kg), n = 5, read-out: AUCinfinity), the AUC(0-inf) came out at 51.5 ± 5.53 µg·h/mL.

As to `CC1(C)C(=O)NC(=O)N1CO` [MDMH, 1-(Hydroxymethyl)-5,5-dimethylhydantoin], in series [1] (IV injection of MDMH 50 mg/kg, AUC ratio adjusted for molecular weight), the “Fm to DMH (fraction of MDMH metabolized to DMH)” value is 97.6 ± 9.6% and 97.59 ± 9.64%. In addition, in series [1] (MDMH after i.v. injection of MDMH), the “time until parent compound plasma concentrations reached below the quantification limit” value was at most 5 min. The half-life in series [1] (50 mg/kg, MDMH after IV injection of MDMH 50 mg/kg, read-out: t1/2 (hour equivalent)) turned out to be 0.007 h. The half-life in series [1] (50 mg/kg, MDMH in plasma after IV injection of MDMH 50 mg/kg, n = 5, mean ± S.D., read-out: t1/2) came to 0.00667 ± 0.00167 h. In series [1] (setting [6]), the clearance is 94.1 L/h/kg and the Vd came to 0.84 ± 0.04 L/kg. Further, in series [1] (setting [7]), the AUC(0-t) was 0.57 ± 0.19 µg·h/mL, the C0 is 77.9 ± 28.1 µg/mL and the AUC(0-inf) came to 0.58 ± 0.18 µg·h/mL. The “parent compound plasma concentrations after transdermal application” value in series [2] (MDMH in plasma after MDMH gel TD application, throughout the sampling period) is “below the quantification limit; also recorded: below quantification limits”. In addition, the “Fm to DMH (fraction metabolized)” value in series [2] (ratio of DMH exposure after MDMH gel TD (10.9 mg/kg) to that after DMH gel TD) was found to be 89.78 ± 24.15%.
